What was measured:
[1] = system: human tumor xenografts; conditions: nude mice, cited from earlier work
[2] = system: histologically diverse tumor cells; conditions: cited from earlier work
[3] = system: human glioblastoma cell line; conditions: human glioblastoma cell line in vitro; cited from earlier work
[4] = system: orthotopic glioma; conditions: nude mice; cited from earlier work
[5] = stability of CCI-779 in parenteral cosolvent formulation; format: physicochemical; conditions: citric acid at a concentration of less than 0.01% w/v
From the text: In this embodiment, the stability of CCI-779 in parenterally acceptable alcoholic cosolvents is enhanced by addition of an antioxidant to the formulation. Acceptable antioxidants include, but are not limited to, citric acid, d,l-α-tocopherol, BHA, BHT, monothioglycerol, ascorbic acid, propyl gallate, and mixtures thereof. Generally, the parenteral formulations useful in this embodiment of the invention will contain an antioxidant component(s) in a concentration ranging from 0.001% to 1% w/v, or 0.01% to 0.5% w/v, of the cosolvent concentrate, although lower or higher concentrations may be desired. Of the antioxidants, d,l-α-tocopherol is particularly desirable and is used at a concentration of 0.01 to 0.1% w/v with a preferred concentration of 0.075% w/v of the cosolvent concentrate.
Examples of such chelating agents include, e.g., citric acid, acetic acid, and ascorbic acid (which may function as both a classic antioxidant and a chelating agent in the present formulations). Other chelating agents include such materials as are capable of binding metal ions in solution, such as ethylene diamine tetra acetic acid (EDTA), its salts, or amino acids such as glycine are capable of enhancing the stability of CCI-779. […] Optimal concentrations for the selected antioxidant(s) can be readily determined by one of skill in the art, based upon the information provided herein.

stability of CCI-779 [5]: enhanced the stability
Structure (SMILES): CO[C@H]1C[C@@H]2CC[C@@H](C)[C@@](O)(O2)C(=O)C(=O)N2CCCC[C@H]2C(=O)O[C@H]([C@H](C)C[C@@H]2CC[C@@H](OC(=O)C(C)(CO)CO)[C@H](OC)C2)CC(=O)[C@H](C)/C=C(\C)[C@@H](O)[C@@H](OC)C(=O)[C@H](C)C[C@H](C)/C=C/C=C/C=C/1C [CCI-779, Rapamycin 42-ester with 3-hydroxy-2-(hydroxymethyl)-2-methylpropionic acid]
growth of several human pancreatic tumors and one of two breast cancer lines ([1]; in vivo): inhibited
activity against human tumor xenografts of diverse histological types ([1]; gliomas particularly sensitive): has activity
cell cycle effect ([2]; in vitro tumor cells): arrested cells in the G1 phase
growth of tumor cells ([2]; in vitro, CNS cancer, leukemia (T-cell), breast cancer, prostate cancer and melanoma lines among the most sensitive): inhibit the growth
growth factor (platelet-derived)-induced stimulation [3]: markedly suppressed
activity in orthotopic glioma model [4]: active

Source: patent publication US7060709B2, “Method of treating hepatic fibrosis” (Wyeth, priority 2003, dated 2006)
